Laboratory results published in ChEMBL document CHEMBL5576078, “Discovery of a potent, orally available furopyridine derivative as a novel selective bromodomain and extra-terminal domain (BET)-first bromodomain (BD1) inhibitor” (Bioorg Med Chem Lett, 2024).

Assays:
[1] = biological target: T1, Bromodomain-containing protein 4 (Homo sapiens, UniProt O60885); assay: Inhibition of BRD4 BD2 (unknown origin) by TR-FRET assay
[2] = biological target: T1, Bromodomain-containing protein 4; assay: Inhibition of BRD4 BD1 (unknown origin) by TR-FRET assay
[3] = biological target: T1, Bromodomain-containing protein 4; assay: Inhibition of BRD4 BD1 (unknown origin)
[4] = Inhibition of LPS induced IL-6 production in HMVEC cells; conditions: Homo sapiens

C[C@@H]1CN(S(C)(=O)=O)CCN1Cc1cc2c(=O)n(C)cc(-c3nccnc3OCC3CC3)c2o1
IC50 [1]: 1600 nM | IC50 [2]: 18 nM

C[C@@H]1CN(S(C)(=O)=O)CCN1Cc1cc2c(=O)n(C)cc(-c3cc(Cl)nn3CC3CCOCC3)c2o1
IC50 [1]: 3600 nM | IC50 [2]: 180 nM

CC(=O)Nc1cc(-c2cn(C)c(=O)c3cc(CN4CCN(S(C)(=O)=O)C[C@H]4C)oc23)ccn1
IC50 [3]: ≤ 100 nM | IC50 [1]: 650 nM | IC50 [2]: 63 nM

C[C@@H]1CN(S(C)(=O)=O)CCN1Cc1cc2c(=O)n(C)cc(-c3nc(Cl)cn3CC3CCOCC3)c2o1
IC50 [1]: > 10000 nM | IC50 [2]: 53 nM

C[C@@H]1CN(S(C)(=O)=O)CCN1Cc1cc2c(=O)n(C)cc(-c3cccc(NS(C)(=O)=O)c3)c2o1
IC50 [1]: 1500 nM | IC50 [2]: 27 nM

C[C@@H]1CN(S(C)(=O)=O)CCN1Cc1cc2c(=O)n(C)cc(-c3cc(NS(C)(=O)=O)ccc3OCC3CC3)c2o1
IC50 [1]: 20 nM | IC50 [2]: 11 nM

C[C@@H]1CN(S(C)(=O)=O)CCN1Cc1cc2c(=O)n(C)cc(-c3nc(Cl)c(Cl)n3CC3CCOCC3)c2o1
IC50 [1]: 8800 nM | IC50 [2]: 150 nM

Cc1sc2c(c1C)C(c1ccc(Cl)cc1)=N[C@@H](CC(=O)OC(C)(C)C)c1nnc(C)n1-2
IC50 [4]: 45 nM
